Experimental data taken from PubChem BioAssay (NCI).
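In this assay, cells in 96-well plates receive the compound at five concentrations for 48 hours. Endpoints are linearly interpolated between the surrounding concentrations. At the TGI there is no net growth.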 Peptide text beside a SMILES is read from it. * marks the point of attachment. Cbz = O=C(OCc1ccccc1)*

How the values were obtained:
Experiment in all cases: NCI-60 cell line screen, 48 h
HT29 colon = tested on: HT29 colon
U251 CNS = tested on: U251 CNS
A498 renal = tested on: A498 renal
SK-MEL-28 melanoma = tested on: SK-MEL-28 melanoma
UACC-257 melanoma = tested on: UACC-257 melanoma
CCRF-CEM leukemia = tested on: CCRF-CEM leukemia
TK-10 renal = tested on: TK-10 renal
ACHN renal = tested on: ACHN renal
HL-60(TB) leukemia = tested on: HL-60(TB) leukemia
SK-OV-3 ovarian = tested on: SK-OV-3 ovarian
IGROV1 ovarian = tested on: IGROV1 ovarian
OVCAR-4 ovarian = tested on: OVCAR-4 ovarian
OVCAR-5 ovarian = tested on: OVCAR-5 ovarian
RPMI-8226 leukemia = tested on: RPMI-8226 leukemia
MDA-MB-231 breast = tested on: MDA-MB-231 breast
NCI/ADR-RES ovarian = tested on: NCI/ADR-RES ovarian
HS 578T breast = tested on: HS 578T breast

Measured: TGI

CC(=O)OCc1ncccc1C(OC(C)=O)OC(C)=O
not listed: RPMI-8226 leukemia | MDA-MB-231 breast | NCI/ADR-RES ovarian | HS 578T breast
> 100 µM: all other assays above

CC(=O)NC(CCCCN(Cc1ccccc1)C(=O)N(C)N=O)C(=O)NCc1ccccc1 (centres undefined)
not listed: HL-60(TB) leukemia | MDA-MB-231 breast | NCI/ADR-RES ovarian | HS 578T breast
> 100 µM: all other assays above

COc1cc(CO)cc2c1[nH]c1ccccc12
not listed: A498 renal | UACC-257 melanoma | MDA-MB-231 breast | NCI/ADR-RES ovarian | HS 578T breast
> 25 µM: all other assays above

COc1ccc(OC)c2c1ccc1c(C)c3ccccc3c(C)c12
not listed: SK-OV-3 ovarian | NCI/ADR-RES ovarian | HS 578T breast
> 100 µM: all other assays above

NC(=S)N/N=C(/CCN1CCCC1)CC(C1=C(O)C2=CCCCC2OC1=O)c1ccccc1 (centres undefined)
not listed: SK-MEL-28 melanoma | MDA-MB-231 breast | NCI/ADR-RES ovarian | HS 578T breast
> 100 µM: all other assays above

CCOc1cc2cnc3c4cc(OC)c(OC)cc4ccc3c2cc1OC
88.6 µM: CCRF-CEM leukemia
not listed: A498 renal | MDA-MB-231 breast | NCI/ADR-RES ovarian | HS 578T breast
> 100 µM: all other assays above

O=[N+]([O-])c1ccc2nc(/C=C(\O)c3ccccc3)c(NC34CC5CC(CC(C5)C3)C4)nc2c1
not listed: CCRF-CEM leukemia | HL-60(TB) leukemia | RPMI-8226 leukemia
> 10 µM: all other assays above

O=C(Cn1c2c(c3ccccc31)CCCC2)N1CCOCC1
not listed: U251 CNS | SK-MEL-28 melanoma | MDA-MB-231 breast
> 100 µM: all other assays above

Nc1nc(Cl)cc(NCC2(CO)CC=CC2)n1
not listed: A498 renal | HL-60(TB) leukemia | RPMI-8226 leukemia
> 100 µM: all other assays above

COc1cccc(C=C(C#N)C#N)c1OC
not listed: A498 renal | MDA-MB-231 breast | HS 578T breast
> 100 µM: all other assays above

CC(=O)Nc1ccc(S(=O)(=O)N/N=C(\C)CN2C(=O)c3ccccc3C2=O)cc1
not listed: SK-MEL-28 melanoma | MDA-MB-231 breast | NCI/ADR-RES ovarian | HS 578T breast
> 100 µM: all other assays above

O=C(c1nc2ccc(Cl)cc2[nH]c1=O)C(O)c1ccco1 (centres undefined)
not listed: U251 CNS | A498 renal | RPMI-8226 leukemia | MDA-MB-231 breast | NCI/ADR-RES ovarian | HS 578T breast
> 100 µM: all other assays above

O=C(O)c1ccc(C2=Nc3cccc4cccc(c34)N2)cc1
not listed: A498 renal | OVCAR-5 ovarian
> 100 µM: all other assays above

COc1ccc([C@H]2[C@@H]3CCc4ccccc4C3=NN2C(N)=S)cc1OC
54.8 µM: HL-60(TB) leukemia
not listed: MDA-MB-231 breast | NCI/ADR-RES ovarian | HS 578T breast
> 100 µM: all other assays above

FC(F)(F)c1nc2c(ccc3[nH]c4c(-c5ccccc5)nccc4c32)[nH]1
> 69.1 µM: CCRF-CEM leukemia
> 64.7 µM: RPMI-8226 leukemia
not listed: MDA-MB-231 breast | NCI/ADR-RES ovarian | HS 578T breast
> 100 µM: all other assays above

CN1C(CC(O)c2ccccc2)CCCC1CC(O)(c1ccccc1)c1ccccc1 (centres undefined)
33.1 µM: IGROV1 ovarian
41.1 µM: RPMI-8226 leukemia
32.7 µM: OVCAR-5 ovarian
33.5 µM: NCI/ADR-RES ovarian
28.4 µM: U251 CNS
58.1 µM: CCRF-CEM leukemia
31.8 µM: HT29 colon
48.8 µM: MDA-MB-231 breast
52.2 µM: ACHN renal
33.4 µM: UACC-257 melanoma
38.8 µM: TK-10 renal | SK-OV-3 ovarian
41.8 µM: HL-60(TB) leukemia
30.9 µM: SK-MEL-28 melanoma

Cc1ccc([N+](=O)[O-])cc1NC(=O)/C(CC(=O)c1sc(C(N)=S)nc1C)=N\N
79.2 µM: CCRF-CEM leukemia
not listed: MDA-MB-231 breast | NCI/ADR-RES ovarian | HS 578T breast
> 100 µM: all other assays above

CCOC(=O)c1nc2ccc(C(F)(F)F)cc2nc1NCc1ccc(F)cc1
77.3 µM: IGROV1 ovarian
86.5 µM: HS 578T breast
90.9 µM: OVCAR-4 ovarian
not listed: A498 renal
> 100 µM: all other assays above

COC(=O)[C@H]1C2CC[C@@H]3C45C[C@@H](c6ccoc6)O[C@@H]4O[C@@H](O2)C31CCC5C (some centres undefined)
not listed: SK-MEL-28 melanoma | MDA-MB-231 breast | NCI/ADR-RES ovarian | HS 578T breast
> 100 µM: all other assays above

C=CCc1cccc(/C(O)=C/C(=O)/C=C/c2ccccc2Cl)c1O
> 70.4 µM: UACC-257 melanoma
42.5 µM: HT29 colon
29.6 µM: IGROV1 ovarian
97.1 µM: SK-OV-3 ovarian
45 µM: A498 renal
> 63.1 µM: U251 CNS
> 93.6 µM: MDA-MB-231 breast
36.5 µM: RPMI-8226 leukemia
95.1 µM: CCRF-CEM leukemia
> 57.5 µM: SK-MEL-28 melanoma
> 100 µM: TK-10 renal | ACHN renal | OVCAR-5 ovarian
45.9 µM: NCI/ADR-RES ovarian

CCOC(=O)/C=C(\C(=O)OCC)n1cc(C)c(=O)n(Cc2cn(COCCOC(C)=O)nn2)c1=O
48.1 µM: SK-MEL-28 melanoma
15.9 µM: TK-10 renal
46.1 µM: HS 578T breast
> 100 µM: SK-OV-3 ovarian
48.7 µM: OVCAR-4 ovarian
31.1 µM: IGROV1 ovarian
37.5 µM: U251 CNS
18.9 µM: RPMI-8226 leukemia
19.5 µM: ACHN renal
40.7 µM: MDA-MB-231 breast
33.7 µM: UACC-257 melanoma
20.9 µM: HT29 colon
5.95 µM: CCRF-CEM leukemia
29.5 µM: OVCAR-5 ovarian
67.4 µM: NCI/ADR-RES ovarian

C[C@@H]1C[C@@H]2C(=O)N(c3ccccc3)C(=O)[C@@H]2c2[nH]c3ccc(Br)cc3c21
38.8 µM: U251 CNS
44.5 µM: SK-OV-3 ovarian
57.9 µM: OVCAR-4 ovarian
not listed: HT29 colon | RPMI-8226 leukemia | MDA-MB-231 breast | NCI/ADR-RES ovarian | HS 578T breast
> 100 µM: all other assays above

O=C1C2CCCCC2C(=O)N1n1c(Cc2ccccc2)n[nH]c1=O (centres undefined)
not listed: SK-MEL-28 melanoma | HL-60(TB) leukemia
> 100 µM: all other assays above

CC1=C(c2ccccc2)CON(c2ccccc2)C1
76.2 µM: HL-60(TB) leukemia
86.2 µM: SK-MEL-28 melanoma
69 µM: U251 CNS
not listed: A498 renal | TK-10 renal | MDA-MB-231 breast | NCI/ADR-RES ovarian | HS 578T breast
> 100 µM: all other assays above

O=C(Cc1ccccc1)N/N=C(/c1nc2ccc([N+](=O)[O-])cc2[nH]c1=O)C(O)c1ccco1 (centres undefined)
not listed: MDA-MB-231 breast | NCI/ADR-RES ovarian | HS 578T breast
> 100 µM: all other assays above

N#CCc1nc(-c2cc3ccc(O)cc3oc2=O)cs1
81.2 µM: RPMI-8226 leukemia
not listed: A498 renal
> 100 µM: all other assays above

CN(C)CCSC(=Nc1ccccc1)n1cccc1
not listed: A498 renal | MDA-MB-231 breast | NCI/ADR-RES ovarian | HS 578T breast
> 100 µM: all other assays above

COc1ccc(/C=N/NC(=O)CSc2nc(-c3ccccc3)c(-c3ccccc3)[nH]2)cc1OC
57.8 µM: U251 CNS
64 µM: OVCAR-5 ovarian
70 µM: A498 renal
51.8 µM: RPMI-8226 leukemia
87.4 µM: OVCAR-4 ovarian
60.3 µM: HT29 colon
89.8 µM: SK-MEL-28 melanoma
57.3 µM: UACC-257 melanoma
77.2 µM: ACHN renal
63.3 µM: SK-OV-3 ovarian
55.5 µM: IGROV1 ovarian
> 100 µM: CCRF-CEM leukemia | TK-10 renal
42.3 µM: HL-60(TB) leukemia

CCOC(=O)COc1cc(-c2ccccc2)nc2cc(F)ccc12
not listed: ACHN renal | HL-60(TB) leukemia | HS 578T breast
> 100 µM: all other assays above

N#CC(C(=S)Nc1ccccc1)=C1Nc2ccccc2N1
not listed: HT29 colon | IGROV1 ovarian | MDA-MB-231 breast | NCI/ADR-RES ovarian | HS 578T breast
> 10 µM: all other assays above

CCOC(=O)CCC(NC(=O)CNC(=O)CNC(=O)C(CCC(=O)OCC)NC(=O)C(CCC(=O)OCC)NC(=O)C(CCC(=O)OCC)NC(=O)OCc1ccccc1)C(=O)NC(CCC(=O)OCC)C(=O)NC(CCC(=O)OCC)C(=O)OCC (centres undefined) (Cbz-E(OEt)E(OEt)E(OEt)GGE(OEt)E(OEt)E(OEt)-OEt; configuration not given here)
not listed: A498 renal | HL-60(TB) leukemia
> 75 µM: all other assays above
